Values quoted from earlier work in US8377476B2, “Butenafine hydrochloride-containing aqueous patch” (Teikoku Seiyaku Co., Ltd., priority 2008, dated 2013).
Structures can show the parent of a compound that is named as a salt. Where two headings read alike, the source gives them in different places.

Water-solubility (hydrochloride): low water-solubility | Water-solubility (listed as Butenafine hydrochloride): extremely poor water-solubility
Structure (SMILES): CN(Cc1ccc(C(C)(C)C)cc1)Cc1cccc2ccccc12 [butenafine hydrochloride]
